ChEMBL document CHEMBL3045227, “Development of 4-aminoquinoline-1,3,5-triazine conjugates as potent antibacterial agent through facile synthetic route” (2013)
≈ marks a conversion by molar mass, not a printed value.

Assays:
Type in all cases: functional
[1] = test system: Proteus mirabilis; test: Antibacterial activity against Proteus mirabilis NCIM 2241 assessed as growth inhibition after 24 hr by NCCLS broth dilution method; details: NCIM 2241, 24 h
[2] = test system: Escherichia coli; test: Antibacterial activity against Escherichia coli NCIM 2065 assessed as growth inhibition after 24 hr by NCCLS broth dilution method; details: NCIM 2065, 24 h
[3] = test system: Proteus vulgaris; test: Antibacterial activity against Proteus vulgaris NCIM 2027 assessed as growth inhibition after 24 hr by NCCLS broth dilution method; details: NCIM 2027, 24 h
[4] = test system: Bacillus subtilis; test: Antibacterial activity against Bacillus subtilis NCIM 2063 assessed as growth inhibition after 24 hr by NCCLS broth dilution method; details: NCIM 2063, 24 h
[5] = test system: Staphylococcus aureus; test: Antibacterial activity against Staphylococcus aureus NCIM 2079 assessed as growth inhibition after 24 hr by NCCLS broth dilution method; details: NCIM 2079, 24 h
[6] = test system: Bacillus cereus; test: Antibacterial activity against Bacillus cereus NCIM 2156 assessed as growth inhibition after 24 hr by NCCLS broth dilution method; details: NCIM 2156, 24 h
[7] = test system: Pseudomonas aeruginosa; test: Antibacterial activity against Pseudomonas aeruginosa NCIM 2036 assessed as growth inhibition after 24 hr by NCCLS broth dilution method; details: NCIM 2036, 24 h

| Compound | MIC [1] [µg/mL] | MIC [2] [µg/mL] | MIC [3] [µg/mL] | MIC [4] [µg/mL] | MIC [5] [µg/mL] | MIC [6] [µg/mL] | MIC [7] [µg/mL] |
| --- | --- | --- | --- | --- | --- | --- | --- |
| NC(=S)NNc1nc(Nc2ccc([N+](=O)[O-])cc2)nc(N2CCN(C(=S)Nc3ccnc4cc(Cl)ccc34)CC2)n1 | 12.5 (≈ 20.5 µM) | 6.25 (≈ 10.2 µM) | 12.5 (≈ 20.5 µM) | 6.25 (≈ 10.2 µM) | 25 (≈ 40.9 µM) | 3.12 (≈ 5.11 µM) | 6.25 (≈ 10.2 µM) |
| NNc1nc(Nc2ccc([N+](=O)[O-])cc2)nc(N2CCN(C(=S)Nc3ccnc4cc(Cl)ccc34)CC2)n1.O | 6.25 | 25 | 12.5 | 6.25 | 25 | 6.25 | 12.5 |
| O=[N+]([O-])c1ccc(Nc2nc(N3CCOCC3)nc(N3CCN(C(=S)Nc4ccnc5cc(Cl)ccc45)CC3)n2)cc1 | 12.5 (≈ 20.6 µM) | 6.25 (≈ 10.3 µM) | 3.12 (≈ 5.15 µM) | 6.25 (≈ 10.3 µM) | 3.12 (≈ 5.15 µM) | 3.12 (≈ 5.15 µM) | 12.5 (≈ 20.6 µM) |
| NC(=O)NNc1nc(Nc2ccc([N+](=O)[O-])cc2)nc(N2CCN(C(=S)Nc3ccnc4cc(Cl)ccc34)CC2)n1 | 6.25 (≈ 10.5 µM) | 12.5 (≈ 21 µM) | 6.25 (≈ 10.5 µM) | 3.12 (≈ 5.25 µM) | 12.5 (≈ 21 µM) | 6.25 (≈ 10.5 µM) | 12.5 (≈ 21 µM) |
| CC1COc2c(N3CCN(C)CC3)c(F)cc3c(=O)c(C(=O)O)cn1c23 (stereo not given) [OFLOXACIN] | 3.12 (≈ 8.65 µM) | 3.12 (≈ 8.65 µM) | 3.12 (≈ 8.65 µM) | 3.12 (≈ 8.65 µM) | 6.25 (≈ 17.3 µM) | 6.25 (≈ 17.3 µM) | 6.25 (≈ 17.3 µM) |
| Cc1ccccc1Nc1nc(Nc2ccc([N+](=O)[O-])cc2)nc(N2CCN(C(=S)Nc3ccnc4cc(Cl)ccc34)CC2)n1 | 12.5 (≈ 19.9 µM) | 6.25 (≈ 9.97 µM) | 25 (≈ 39.9 µM) | 12.5 (≈ 19.9 µM) | 25 (≈ 39.9 µM) | 12.5 (≈ 19.9 µM) | 6.25 (≈ 9.97 µM) |
| O=[N+]([O-])c1ccc(Nc2nc(Nc3ccc(O)cc3)nc(N3CCN(C(=S)Nc4ccnc5cc(Cl)ccc45)CC3)n2)cc1 | 50 (≈ 79.5 µM) | 50 (≈ 79.5 µM) | 50 (≈ 79.5 µM) | 25 (≈ 39.7 µM) | 100 (≈ 159 µM) | 25 (≈ 39.7 µM) | 25 (≈ 39.7 µM) |
| Cc1ccc(Nc2nc(Nc3ccc([N+](=O)[O-])cc3)nc(N3CCN(C(=S)Nc4ccnc5cc(Cl)ccc45)CC3)n2)cc1 | 3.12 (≈ 4.98 µM) | 12.5 (≈ 19.9 µM) | 12.5 (≈ 19.9 µM) | 6.25 (≈ 9.97 µM) | 12.5 (≈ 19.9 µM) | 3.12 (≈ 4.98 µM) | 6.25 (≈ 9.97 µM) |
| NCCCNc1nc(Nc2ccc([N+](=O)[O-])cc2)nc(N2CCN(C(=S)Nc3ccnc4cc(Cl)ccc34)CC2)n1 | 12.5 (≈ 21 µM) | 12.5 (≈ 21 µM) | 25 (≈ 42.1 µM) | 25 (≈ 42.1 µM) | 25 (≈ 42.1 µM) | 12.5 (≈ 21 µM) | 12.5 (≈ 21 µM) |
| O=[N+]([O-])c1ccc(Nc2nc(Nc3ccccc3)nc(N3CCN(C(=S)Nc4ccnc5cc(Cl)ccc45)CC3)n2)cc1 | 6.25 (≈ 10.2 µM) | 12.5 (≈ 20.4 µM) | 12.5 (≈ 20.4 µM) | 12.5 (≈ 20.4 µM) | 12.5 (≈ 20.4 µM) | 3.12 (≈ 5.1 µM) | 6.25 (≈ 10.2 µM) |
